Assay results published in paper PMC9873307, “Methylone, a rapid acting entactogen with robust anxiolytic and antidepressant-like activity” (Frontiers in Psychiatry, 2023).
Like-named read-outs stand apart in the source and are kept apart here.

What was measured:
[1] = cited from earlier work; for reduced immobility in the FST: FST literature
[2] = set-up: method as in PMID 10080230; conditions: cited from earlier work
male Sprague Dawley rats [3] = experiment: Open field test (OFT): locomotor activity and time in center; assay type: in vivo, rat
Method: (§1) Male Sprague Dawley rats (Charles River Laboratories) weighing 180–200 g on arrival, were used for all behavioral studies, which took place at Melior Discovery (Exton, PA, USA). Rats acclimated to their home cages for at least 1 week before testing, were maintained in a controlled environment on a 12 h light/dark cycle, with no more than 2 rats per cage. Animals received ad libitum access to standard rodent chow and water and were assigned randomly to treatment groups. All animal use and procedures were in accordance with established protocols approved by the Melior IACUC committee, Melior Standard Operation Procedures (SOP), and Transcend Therapeutics. Distinct cohorts of animals were used for each experiment/Figure presented in this manuscript.
(§2) Methylone HCl (0.5–30 mg/kg; Cayman Chemical) or Fluoxetine HCl (10 mg/kg; Sigma-Aldrich) were formulated in sterile 0.9% saline vehicle before IP administration. Control animals received saline vehicle. Methylone or saline was administered 30 min prior to FST or OFT testing sessions. Fluoxetine or saline were administered 23.5, 5, and 1 h prior to testing, consistent with previous studies ([19]).
All studies were performed by an experimenter blind to treatment group and according to standard protocols at Melior Discovery (Exton, PA, USA). The OFT was used to assess both locomotor activity and anxiety-like behavior. The OFT was run in a standard rat OFA chamber (17 ^^′′ × 17 ^^′′ × 12 ^^′′ , Med Associates). After habituation to the testing room and drug injection, rats were assessed for 30 min in the OFT using an automated activity monitoring system (MedAssociates). Locomotor activity was measured by recording the total ambulatory distance traveled (cm), reported in 5-min bins for the duration of the 30 min testing period. The center of the open field was defined as a 12 ^^′′ square, a predefined center setting on the MedAssociates analysis software. Time spent in the center of the open field, an anxiolytic measure, was also recorded for the 30 min testing period.

male Sprague Dawley rats [4] = experiment: Forced swim test (FST); assay type: in vivo, rat; conditions: for swimming vs vehicle: Figure 3G
Method: as §1, §2
All studies were performed and scored by an experimenter blind to treatment group according to standard protocols at Melior Discovery (Exton, PA, USA) and based on published “modified FST” procedures ([20]). Briefly, rats were placed in a circular plexiglass container (29.2 cm diameter, 49.5 cm height) filled with water to a depth of 30 cm so rats could not support themselves by touching the bottom of the tank. Water was maintained at 22–25°C and was changed for every animal. Day 1 (Training) consisted of a 15 min acclimation trial, and Day 2 (Testing, 24 h later) consisted of the 5 min test. A time sampling procedure was employed where animals were observed every 5 s for the duration of the test session (60 counts or 5 min) and scored for immobility (defined as the failure to struggle), swimming (defined as a circular movement around the tank), or climbing (defined as an upward escape behavior). Data are expressed as the percent time spent immobile, swimming, or climbing for the 5-min testing session (e.g., the number of immobility counts divided by 60). Therefore, to extrapolate these values to time spent immobile in minutes, one can multiply the percent time immobile by 5 min.

For CNC1(c2ccccc2Cl)CCCCC1=O (stereo not shown) [ketamine], the “reduced immobility in the FST” value [1] is given as 25–62%.

In the case of CNC(C)Cc1ccc2c(c1)OCO2 (stereo not shown) [MDMA, 3,4-methylenedioxymethamphetamine], the “reduced immobility in the FST” value [1] is given as 47–78%, the “reduction of immobility compared to vehicle controls” value ([1]; FST) is given as 47–78% and the effect on anxiety ([2]; clinically relevant doses) is given as “no effect”. The effect on anxiety ([2]; higher doses) was “anxiogenic”.

In the case of CN(C)CCc1c[nH]c2cccc(OP(=O)(O)O)c12 [psilocybin], the “reduced immobility in the FST” value [1] is listed as 67%.

In the case of CNCCC(Oc1ccc(C(F)(F)F)cc1)c1ccccc1 (stereo not shown) [fluoxetine, reference compound], the “reduced immobility in the FST” value [1] is listed as 56%, the “distance traveled, first 5 min” value (male Sprague Dawley rats [3]; fluoxetine 10 mg/kg IP x3, 1 h post-dose, Figure 4B) is listed as “reduced distance traveled” and the “distance traveled over 30-min session, 5-min bins” value (male Sprague Dawley rats [3]; fluoxetine 10 mg/kg IP x3, Figure 4E) is listed as “reduced distance traveled in the OFT for the first 15 min”. The “time spent in the center” value (male Sprague Dawley rats [3]; fluoxetine 10 mg/kg IP x3, Figure 5B) was “significantly reduced time spent in the center”, the “climbing behavior vs controls” value (male Sprague Dawley rats [4]; fluoxetine 10 mg/kg IP x3, Figure 1E) was “unaffected” and the “swimming behavior vs controls” value (male Sprague Dawley rats [4]; fluoxetine 10 mg/kg IP x3, Figure 1G) was “significantly increased”. For the same compound, the “climbing vs vehicle on retest” value (male Sprague Dawley rats [4]; fluoxetine 10 mg/kg IP x3, 1 h, 24, 72 h, Figure 3E) was “no effect on climbing”, the swimming vs vehicle (male Sprague Dawley rats [4]; fluoxetine 10 mg/kg IP x3, 1 h post-dose) was “significantly increased swimming” and the swimming vs vehicle (male Sprague Dawley rats [4]; fluoxetine 10 mg/kg IP x3, 24 h post-dose) was “small but significant increase in swimming”. The “immobility vs vehicle on retest” value (male Sprague Dawley rats [4]; fluoxetine 10 mg/kg IP x3, tested 1 h, retested 24 and 72 h later, Figure 3C) was “only showed a significant effect on immobility 1 h post-dose”, the “reduction/change in immobility vs vehicle control” value (male Sprague Dawley rats [4]; fluoxetine 10 mg/kg IP, three doses 23.5, 5, 1 h before testing) was 50% and the “swimming compared to vehicle” value (male Sprague Dawley rats [4]; fluoxetine 10 mg/kg x3 alone or with methylone 5 mg/kg, Figure 6D) was “significantly increased swimming”. For the same compound, the “duration of reduction in immobility” value (male Sprague Dawley rats [4]; fluoxetine 10 mg/kg, three doses within 24 h before testing) was “less than 24 h”.

In the case of Fc1ccc([C@@H]2CCNC[C@H]2COc2ccc3c(c2)OCO3)cc1 [paroxetine], the “reduced immobility in the FST” value [1] is given as 40%.

For CN[C@H]1CC[C@@H](c2ccc(Cl)c(Cl)c2)c2ccccc21 [sertraline], the “reduced immobility in the FST” value [1] is given as 50–68%.

In the case of CNCCCN1c2ccccc2CCc2ccccc21 [desipramine], the “reduced immobility in the FST” value [1] is listed as 55–75%.
